Results: US12618062B2, “Display of molecules on silently genetically encoded nanoscale carriers for determining synergistic molecular interactions” (The Governors of the University of Alberta, priority 2017, dated 2026)

Molecular target: T1, Ulex Europaeus Agglutinin (UEA lectin) (Ulex europaeus, UniProt P22972)
T1 sequence (P22972 1-243): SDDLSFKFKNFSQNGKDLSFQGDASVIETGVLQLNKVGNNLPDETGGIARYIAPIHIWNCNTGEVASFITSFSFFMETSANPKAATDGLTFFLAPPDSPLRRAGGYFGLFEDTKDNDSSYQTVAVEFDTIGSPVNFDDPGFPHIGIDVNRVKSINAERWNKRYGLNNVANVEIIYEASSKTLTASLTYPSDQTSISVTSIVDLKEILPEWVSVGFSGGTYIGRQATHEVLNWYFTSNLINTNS
Assay: Pull-down of liquid glycan array and deep sequencing
Type: binding
Conditions: array of 74 glycans; FIG. 6H
Source text: The washing step was repeated three times.

| Substance | Enrichment in pull down by plant lectin UGA |
| --- | --- |
| Fucα1-2Galb1-4[Fucα1-3]GlcNAcb-Phage [Te118] | enrichment not detected |
| GalNAcα1-3 [Fucα1-2]Galβ1-4G1cNAcβ-Phage [Te222] | enrichment not detected |
